Results taken from PMC12391994, “Synthesis of a fac-Tricarbonylrhenium(I) Complex with Pyrithione, Its Physicochemical Characterization, and Assessment of Biological Effects” (ACS Omega, 2025).
“And” between values parts separate entries of the source, which are not always exact repeats. Equal entries are not always repeated. Where two headings read alike, the source gives them in different places. Marks after values point to notes of the source that are not given here.

What was measured:
[1] = target: T1, cathepsin B (exopeptidase activity) (Homo sapiens, UniProt P07858); assay: Determination of inhibition constants, cathepsin B exopeptidase activity; format: biochemical; conditions: substrate Abz-GIVRAK(Dnp)-OH, mixed inhibition
T1 construct: made in house; host or cells: E. coli
Method: (§1) Human recombinant cathepsin B was expressed in E. coli, recombinant cathepsin V was expressed in Pichia pastoris, and human recombinant cathepsin L was expressed in E. coli, as reported. − For the determination of cathepsin B endopeptidase and exopeptidase activities, 100 mM phosphate buffer (pH 6.0) and 60 mM acetate buffer (pH 5.0) were used, respectively, and for the determination of cathepsin V and L activities, 100 mM acetate buffer (pH 5.5) was used. All buffers contained 0.1% PEG 8000 (Sigma-Aldrich, St. Louis, MO), 5 mM cysteine, and 1.5 mM EDTA. Prior to the assay, the enzymes were activated in the assay buffer for 5 min at 37 °C.
(§2) Inhibition constants were calculated from the reaction velocities measured at three substrate concentrations (the substrate Z-Arg-Arg-AMC at concentrations of 60, 180, and 360 μM and the substrate Abz-Gly-Ile-Val-Arg-Ala-Lys(Dnp)-OH at concentrations of 1, 3, and 6 μM to assess cathepsin B endopeptidase and exopeptidase activity, respectively) in the presence of seven concentrations of the inhibitor (0, 20, 40, 60, 80, 100, and 200 μM). […] Formation of fluorescent degradation products was monitored as described above. […]

[2] = system: CCD-19Lu cells; assay: MTT cytotoxicity assay, CCD-19Lu; format: cell-based, human; conditions: 72 h incubation, noncancerous fibroblast
Method: (§3) Its cytotoxicity was determined in the human HeLa cervical cancer cell line, the drug-sensitive Colo205 and its resistant counterpart, the ABCB1 expressing Colo320 colon adenocarcinoma cancer cell lines, using the colorimetric 3-(4,5-dimethylthiazol-2-yl)-2,5-diphenyltetrazolium bromide (MTT) test. To investigate the selectivity toward cancer cells, the noncancerous fibroblast CCD-19Lu cell line was included.
(§4) The tested compound was dissolved in DMSO to prepare a 5 mM stock solution, which was diluted in complete culture medium, to study the effect of compounds on cell growth of human colonic adenocarcinoma cell lines. Doxorubicin was used as the positive control. The cells were treated with a trypsin-versene (EDTA) solution. Cells were adjusted to a density of 1 × 10^4 cells in 100 μL of the appropriate culture medium and were added to each well, with the exception of the medium control wells. Except for the semiadherent Colo205 and Colo320 cell lines, the other adherent cell lines were seeded 24 h prior to the assay. Then, stock solutions were diluted in the appropriate culture medium, and 2-fold serial dilutions of compounds were prepared in 100 μL of the medium, horizontally. […] Cell growth was determined by measuring the optical density (OD) at 540/630 nm with a Multiscan EX ELISA reader (Thermo Labsystems, Cheshire, WA). […]

[3] = system: HeLa cells; assay: MTT cytotoxicity assay, HeLa; format: cell-based, human; conditions: 72 h incubation
Method: as §3, §4

[4] = system: MCF-10A neoT cells; assay: MTS cell viability assay; conditions: 24 h, concentrations used to monitor ECM degradation
Method: The cells were seeded at 6 × 10^4 cells/well into a 96-well microplate and incubated overnight for attachment. The cells were then treated with the inhibitor (at 1, 2.5, or 5 μM) or DMSO (0.1%) in 100 μL for 24 h. After incubation, 10 μL of the reagent MTS was added to the wells, and the absorbance of formazan was measured at 492 nm on a Tecan Infinite M1000 instrument (Mannedorf, Switzerland). Cell viability (%) was expressed as the ratio between absorbance in the presence of the compounds and that in the presence of DMSO. All assays were performed in quadruplicate and repeated twice.

[5] = target: T2, cathepsin B (endopeptidase activity) (Homo sapiens, UniProt P07858); assay: Determination of inhibition constants, cathepsin B endopeptidase activity; format: biochemical; conditions: substrate Z-RR-AMC
T2 construct: made in house; host or cells: E. coli
Method: as §1, §2

[6] = system: S. aureus ATCC 25923; assay: Antibacterial MIC assay, S. aureus ATCC 25923; format: cell-based, Staphylococcus aureus; conditions: 18 h, visual inspection
Method: The antibacterial effect of the complex was tested against the Gram-negative strain Escherichia coli (E. coli) ATCC 25922, the Gram-positive reference strain Staphylococcus aureus (S. aureus) ATCC 25923, and the methicillin-resistant S. aureus MRSA ATCC 43300 strain. MRSA strains are responsible for several difficult-to-treat hospital-acquired infections.
The following bacterial strains were used in our experiments: Gram-positive S. aureus American Type Culture Collection (ATCC) 25923 as the methicillin-susceptible reference bacterial strain; methicillin-resistant S. aureus ATCC 43300 (MRSA) strain; E. coli ATCC 25922 as a Gram-negative bacterial strain.
MIC values of the complexes were determined in 96-well plates based on the Clinical and Laboratory Standard Institute guidelines (CLSI guidelines). The stock solutions of the compound (dissolved in DMSO at 5 mM concentration) were diluted in 100 μL of Mueller Hinton Broth. Then, 10^–4 dilution of an overnight bacterial culture in 100 μL of medium was added to each well, with the exception of the medium control wells.

[7] = Stability/transformation in aqueous solution (1H NMR, UV-vis, CZE); format: physicochemical
Method: A Bruker Avance III HD Ascend 500 Plus instrument (Billerica, MA) was used for solution NMR studies. Spectra were recorded with a WATERGATE water suppression pulse scheme in the presence of 10% (v/v) D2O in most cases. DSS internal standard was added to samples to obtain reference peaks.

[8] = 10 mM HEPES pH 7.4, 25.0 °C
Method: Distribution coefficients (D 7.4) were determined using n-octanol/buffered aqueous solution (10 mM HEPES, pH = 7.4) partitioning (Table ).
The traditional shake-flask method was used to obtain the distribution coefficient of the complex in n-octanol/buffered aqueous solution (10 mM HEPES, pH = 7.4) using UV–vis spectrophotometry. The measurements and data evaluation were performed as in our previous work.

[9] = Behavior in blood serum; format: physicochemical, human; conditions: concentration of 40 μM

N#Cc1ccccc1.[C-]#[O+].[C-]#[O+].[C-]#[O+].[O-]n1ccccc1=S.[Re+] [complex 4, fac-[Re(CO)3(pth)(benzonitrile)]]
Ki′ (dissociation of enzyme–substrate–inhibitor complex), exopeptidase activity [1]: 67.0 ± 8.3 ^d μM
Ki ([1]; read-out: Ki (dissociation of enzyme–inhibitor complex), exopeptidase activity): 165 ± 76 µM
IC50 [2]: 5.47 ± 0.17 µM
IC50 [3]: 7.96 ± 0.98 µM
effect on viability of MCF-10A neoT cells [4]: did not impair the viability
mode of inhibition, cathepsin B endopeptidase activity [5]: uncompetitive
Ki′ (dissociation of enzyme–substrate–inhibitor complex), endopeptidase activity ([5]; uncompetitive inhibition): 17.02 ± 1.59 μM and 17.0 ± 1.6 ^c μM
MIC [6]: 6.25 µM
time for complete release of the benzonitrile ligand ([7]; water pH 6.8 and pH 7.4 (phosphate or HEPES buffer), kept in the dark, 1H NMR): ≤ 1 h
dissociation of the pyrithione ligand ([7]; water pH 6.8 and pH 7.4 buffers, dark, 48 h): did not occur within 48 h
log D7.4 ([8]; c(Cl–) 0 mM): +1.61 ± 0.18
log D7.4 ([8]; c(Cl–) 4 mM): +1.67 ± 0.14
log D7.4 ([8]; c(Cl–) 24 mM): +1.71 ± 0.13
log D7.4 ([8]; c(Cl–) 100 mM): +1.71 ± 0.14
behavior in blood serum [9]: precipitation
